This passage reports relative viability results from the supplement of paper PMC10307832.

What all share (assay): relative viability (nuclei count vs DMSO), 5 days (fraction); higher = more cells survive
Compound in experiment [1]: CS(=O)(=O)c1ccc(C(=O)Nc2ccc(Cl)c(-c3ccccn3)c2)c(Cl)c1 [Vismodegib] + Nc1nc2[nH]cc(CCc3ccc(C(=O)N[C@@H](CCC(=O)O)C(=O)O)cc3)c2c(=O)[nH]1 [Pemetrexed] (partner 0.2 µM)
A digest of the protocol: (§1)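 A single step with final 0.05% Triton X-100, 1% formaldehyde and 1 ug/ml Hoechst fixed the cells and stained nuclei 5 days after treatment. Lung cancer cell lines in 1536-well plates had been treated by pin tool the day after seeding with one drug alone or a fixed anchor-drug dose plus five library-drug doses (not always all listed) in √10 steps, and nuclei were counted on 4× images. Relative viability is the ratio of nuclei in treated wells to nuclei in vehicle wells, taken as the median of duplicate plates.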

Compound in experiment [2]: N#CC[C@H](C1CCCC1)n1cc(-c2ncnc3[nH]ccc23)cn1 [Ruxolitinib] + COc1cccc2cc(-c3nc([C@H]4CC[C@H](C(=O)O)CC4)n4ncnc(N)c34)[nH]c12 [OSI-027] (partner 0.5 µM)
A digest of the protocol: as §1

Compound in experiment [3]: CS(=O)(=O)c1ccc(-c2cnc(N)c(C(=O)Nc3ccccc3)n2)cc1 [VE-821] + CC(C)C[C@H](NC(=O)[C@H](Cc1ccccc1)NC(=O)c1cnccn1)B(O)O [Bortezomib] (partner 0.002 µM)
A digest of the protocol: as §1

Compound in experiment [4]: CS(=O)(=O)c1ccc(-c2cnc(N)c(C(=O)Nc3ccccc3)n2)cc1 [VE-821] + C[C@]1(O)C[C@@H](c2nc(-c3ccc4ccc(-c5ccccc5)nc4c3)c3c(N)nccn32)C1 [Linsitinib] (partner 1 µM)
The gist of the method: as §1

Take NCI-H522: the relative viability in experiment [1] (first compound 0.08 µM) worked out at 1.18; in experiment [1] (first compound 0.253 µM), 0.731; in experiment [1] (first compound 0.8 µM) it was 1.01; in experiment [1] (first compound 2.53 µM), 0.836; in experiment [1] (first compound 8 µM), 0.988; in experiment [2] (first compound 0.08 µM), 0.811. Besides, the relative viability in experiment [2] (first compound 0.253 µM) stood at 0.667; in experiment [2] (first compound 0.8 µM), 0.78; in experiment [2] (first compound 2.53 µM) it was 0.628; in experiment [2] (first compound 8 µM), 0.605.

As to NCI-H727, the relative viability in experiment [2] (first compound 0.08 µM) was 0.557; in experiment [2] (first compound 0.253 µM), 0.482; in experiment [2] (first compound 0.8 µM), 0.817; in experiment [2] (first compound 2.53 µM), 0.472; in experiment [2] (first compound 8 µM), 0.524; in experiment [3] (first compound 0.08 µM), 0.872. Further, the relative viability amounted to 0.817 in experiment [3] (first compound 0.253 µM); 0.741 in experiment [3] (first compound 0.8 µM); 0.761 in experiment [3] (first compound 2.53 µM); 0.493 in experiment [3] (first compound 8 µM); 0.31 in experiment [4] (first compound 0.08 µM); 0.337 in experiment [4] (first compound 0.253 µM). Also, the relative viability in experiment [4] (first compound 0.8 µM) is 0.251; in experiment [4] (first compound 2.53 µM), 0.335; in experiment [4] (first compound 8 µM), 0.22.

On to NCI-H1299, for which the relative viability worked out at 0.992 in experiment [3] (first compound 0.08 µM); 1 in experiment [3] (first compound 0.253 µM); 0.973 in experiment [3] (first compound 0.8 µM); 0.924 in experiment [3] (first compound 2.53 µM); 0.972 in experiment [3] (first compound 8 µM); 0.946 in experiment [4] (first compound 0.08 µM). The relative viability in experiment [4] (first compound 0.253 µM) turned out to be 0.886; in experiment [4] (first compound 0.8 µM), 0.928; in experiment [4] (first compound 2.53 µM), 1.06; in experiment [4] (first compound 8 µM), 0.959.

On to NCI-H1395, for which the relative viability in experiment [1] (first compound 0.08 µM) turned out to be 0.918; in experiment [1] (first compound 0.253 µM), 0.817; in experiment [1] (first compound 0.8 µM), 0.775; in experiment [1] (first compound 2.53 µM), 0.93; in experiment [1] (first compound 8 µM), 0.743; in experiment [2] (first compound 0.08 µM), 0.578. Besides, the relative viability in experiment [2] (first compound 0.253 µM) worked out at 0.576; in experiment [2] (first compound 0.8 µM), 0.661; in experiment [2] (first compound 2.53 µM) it was 0.564; in experiment [2] (first compound 8 µM), 0.666; in experiment [4] (first compound 0.08 µM), 1.07; in experiment [4] (first compound 0.253 µM), 1.01. Besides, the relative viability in experiment [4] (first compound 0.8 µM) is 0.893; in experiment [4] (first compound 2.53 µM) it was 1.05; in experiment [4] (first compound 8 µM), 0.683.

For the cell line NCI-H1623, the relative viability in experiment [2] (first compound 0.08 µM) is 0.48; in experiment [2] (first compound 0.253 µM) it was 0.461; in experiment [2] (first compound 0.8 µM), 0.469; in experiment [2] (first compound 2.53 µM) it was 0.439; in experiment [2] (first compound 8 µM) it was 0.576.

As to NCI-H1648, the relative viability in experiment [1] (first compound 0.08 µM) came to 0.679; in experiment [1] (first compound 0.253 µM), 0.832; in experiment [1] (first compound 0.8 µM), 0.731; in experiment [1] (first compound 2.53 µM), 0.782; in experiment [1] (first compound 8 µM), 0.702; in experiment [2] (first compound 0.253 µM), 0.269. Also, the results for the relative viability in experiment [2] (first compound 0.8 µM), in experiment [2] (first compound 2.53 µM) and in experiment [2] (first compound 8 µM) were 0.257, 0.308 and 0.279, respectively.

With NCI-H1650, the relative viability in experiment [1] (first compound 0.08 µM) was 0.332; in experiment [1] (first compound 0.253 µM) it was 0.333; in experiment [1] (first compound 0.8 µM), 0.334; in experiment [1] (first compound 2.53 µM) it was 0.372; in experiment [1] (first compound 8 µM) it was 0.354; in experiment [2] (first compound 0.253 µM) it was 0.651. In addition, the relative viability in experiment [2] (first compound 0.8 µM) was determined as 0.98; in experiment [2] (first compound 2.53 µM), 0.769; in experiment [2] (first compound 8 µM) it was 0.641; in experiment [3] (first compound 0.08 µM), 0.194; in experiment [3] (first compound 0.253 µM) it was 0.195; in experiment [3] (first compound 0.8 µM) it was 0.339. The relative viability was 0.187 in experiment [3] (first compound 2.53 µM) and 0.213 in experiment [3] (first compound 8 µM).
